Test results published in patent publication US8609836B2, “4-aryl-2-anilino-pyrimidines” (Janssen Pharmaceutica NV, priority 2008, dated 2013).

What was measured:
PLK1 T210D (h) = PLK1 T210D (h) (Homo sapiens, UniProt P53350, T210D); assay: PLK1 human kinase inhibition, SPA; type: biochemical; conditions: read-out: PLK1 pIC50 (converted)
Description: (§1) The in vitro inhibition of a panel of kinases was assessed using either the scintillation proximity assay (SPA) as described by Cook, N. D. et al., Advances in Experimental Medicine and Biology (1991), 36; p. 525-528.
(§2) In the SPA technology the activity of the kinase of interest is measured using an appropriate biotinylated substrate that is incubated with the aforementioned kinase protein in the presence of (^33P) radiolabeled ATP. (^33P) Phosphorylation of the substrate is subsequently measured through binding of the phosphorylated substrate to streptavidine coated beads that are based on the scintillant poly(vinyl toluene) (PVT-Beads). The scintillation intensity is detected by imaging on Leadseeker.
(§3) All kinases are pre-diluted to a 10× working concentration prior to addition into the assay. The composition of the dilution buffer for each kinase is detailed below.
In a final reaction volume of 30 μl, PLK1 T210D (h) (0.125 ng/ml) is incubated with 50 mM Hepes pH 8.0, 2 mM MnCl2, 1 mM DTT, 2 μM of peptide Biotin-Tds linker-[…], 0.1 μM ATP and 2 nM [γ-^33P-ATP] (6.0 μCi/ml). After incubation of 40 minutes at room temperature, the reaction is stopped by addition of 40 μL of stop solution containing 8.7 mM EDTA, BSA 0.17%, 0.17% Triton X-100, 25 mg/ml SPA beads (GE-healthcare). The plate is centrifuged and read for Scintillation imaging on Leadseeker.

AuroraB (h) = AuroraB (h) (Homo sapiens, UniProt Q96GD4); assay: Aurora-B human kinase inhibition, SPA; type: biochemical; conditions: read-out: AuroraB pIC50 (converted)
Description: as §1, §2, §3
In a final reaction volume of 30 μl, AuroraB (h) (0.5 μg/ml) is incubated with 60 mM Hepes pH 7.5, 3 mM MgCl2, 3 mM MnCl2, 3 μM Na3VO4, 0.05 mg/ml PEG, 2 mM DTT, 3 μM Biotin-[…]-OH, 0.5 μM ATP and 2.2 nM [γ-^33P-ATP] (6.8 μCi/ml). After incubation of 60 minutes at room temperature, the reaction is stopped by addition of 40 μL of stop solution containing 8.7 mM EDTA, BSA 0.17%, 0.17% Triton X-100, 5 mg/ml SPA beads (GE-healthcare). The plate is centrifuged and read for Scintillation imaging on Leadseeker.

PLK3 (h) = PLK3 (h) (Homo sapiens, UniProt Q9H4B4); assay: PLK3 human kinase inhibition, SPA; type: biochemical; conditions: read-out: PLK3 pIC50 (converted)
Description: as §1, §2, §3
(§4) In a final reaction volume of 30 μl, PLK3 (h) (30 μg/ml) is incubated with 50 mM Hepes pH 8.0, 2 mM MnCl2, 1 mM DTT, 2 μM of peptide Biotin-Tds linker-[…], 0.1 μM ATP and 2 nM [γ-^33P-ATP] (6.0 μCi/ml). After incubation of 20 minutes at room temperature, the reaction is stopped by addition of 40 μL of stop solution containing 8.7 mM EDTA, BSA 0.17%, 0.17% Triton X-100, 25 mg/ml SPA beads (GE-healthcare). The plate is centrifuged and read for Scintillation imaging on Leadseeker.

HCT-116 = assay: Cellular proliferation assay (Alamar blue), HCT-116; type: cell-based; conditions: Homo sapiens, 10% FCS, 72 hours with compound, Alamar blue 4 h
Description: (§5) […] functional properties of these compounds were tested in cellular proliferation assays on a panel of different cell lines in the presence of 10% FCS serum (37° C. and 5% (v/v) CO2). In a first step these cells were seeded and incubated for 24 hours in the absence of compound. In the second step the cells were incubated for 72 hours with the compounds to be tested for 72 hours. The viable cell number was finally assessed in a standard Alamar blue cell viability assay.
(§6) The viable cell number was assessed by incubation for either 4 h (HCT-116, H1299) 6 h (U87-MG) or 24 h (A2780, MDA-MB-231) with Alamar blue (Resazurin 9 μg/ml, K-Ferrocyanide 90 μM, K-Ferricyanide 90 μM) and the converted fluorescent product was quantified on a fluorescent plate reader (544 nm/590 nm). Effect of the compounds is calculated as of on control cells.

PLK4 (h) = PLK4 (h) (Homo sapiens, UniProt O00444); assay: PLK-4 human kinase inhibition, scintillation proximity assay (SPA); type: biochemical; conditions: read-out: PLK4 pIC50 (converted)
Description: as §2, §3
(6.0 μCi/ml). After incubation of 60 minutes at room temperature, the reaction is stopped by addition of 40 μL of stop solution containing 8.7 mM EDTA, BSA 0.17%, 0.17% Triton X-100, 1.7 mg/ml SPA beads (GE-healthcare). The plate is centrifuged and read for Scintillation imaging on Leadseeker.

CDK1/CyclinB (h) = CDK1/CyclinB (h) (Homo sapiens, UniProt P06493); assay: CDK1/CyclinB human kinase inhibition, Invitrogen's FRET assay (Z'lyte); type: biochemical; conditions: read-out: CDK1 pIC50 (converted)
Description: as §1, §3
In a final reaction volume of 10 μl, CDK1/CyclinB (h) (0.2 μg/ml) is incubated with 50 mM Hepes pH 7.5, 10 mM MgCl2, 1 mM EGTA, 0.01% Brij-35, 2 μM Z'lyte Ser/Thr peptide 12 and 10 μM ATP (Invitrogen's FRET assay). After incubation of 60 minutes at room temperature, the reaction is stopped by addition of 5 μL development reagent containing protease mix. After 60 minutes room temperature the development reaction is stopped by adding 5 μl stop solution. The plate is then read in fluorescence plate reader with excitation: 390 nm and dual emission: 460 and 538 nm. Emission ratio is determined to the formula=Emission signal intensity at 460 nm/Emission signal intensity at 538 nm.

CDK4/CyclinD1 (h) = CDK4/CyclinD1 (h) (Homo sapiens, UniProt P11802); assay: CDK4/CyclinD1 human kinase inhibition, SPA with GST-pRb substrate; type: biochemical; conditions: read-out: CDK4 pIC50 (converted)
Description: as §1, §2, §3
In a final reaction volume of 30 μl, CDK4/CyclinD1 (h) (2.5 μg/ml) is incubated with 50 mM Hepes pH 7.5, 8 mM NaF, 20 mM MgCl2, 1 mM DTT, 40 μg/ml of substrate GST-pRb, 2 nM [γ-^33P-ATP] (6.0 μCi/ml). After incubation of 60 minutes at room temperature, the reaction is stopped by addition of 40 μL of stop solution containing 8.7 mM EDTA, 0.17% Triton X-100, 25 mg/ml Glutathion SPA Beads (GE-healthcare). The plate is centrifuged and read for Scintillation topcount analyzer.

GSK3β (h) = GSK3β (h) (Homo sapiens, UniProt P49841); assay: GSK-3β human kinase inhibition, SPA; type: biochemical; conditions: read-out: GSK3b pIC50 (converted)
Description: as §1, §2, §3
In a final reaction volume of 30 μl, GSK3β (h) (1 μg/ml) is incubated with 25 mM Tris pH 7.4, 10 mM MgCl2, 1 mM DTT, 1 μM peptide Biotin-[…]-OH, 1 μM ATP and 2 nM [γ-^33P-ATP] (6.0 μCi/ml). After incubation of 60 minutes at room temperature, the reaction is stopped by addition of 40 μL of stop solution containing 8.7 mM EDTA, BSA 0.17%, 0.17% Triton X-100, 6.25 mg/ml SPA beads (GE-healthcare). The plate is centrifuged and read for Scintillation imaging on Leadseeker.

U87-MG = assay: Cellular proliferation assay (Alamar blue), U87-MG; type: cell-based; conditions: Homo sapiens, U-87 MG; 10% FCS; 72 hours with compound; Alamar blue 6 h; read-out: U87-MG (cellular proliferation assay, Table 4) (converted)
Description: as §5, §6

PLK2 (h) = PLK2 (h) (Homo sapiens, UniProt Q9NYY3); assay: PLK2 human kinase inhibition, SPA; type: biochemical; conditions: read-out: PLK2 pIC50 (converted)
Description: as §1, §2, §3
as §4, with “PLK2” for “PLK3”

A2780 = assay: Cellular proliferation assay (Alamar blue), A2780; type: cell-based; conditions: Homo sapiens, 10% FCS, 72 hours with compound, Alamar blue 24 h, read-out: A2780 (cellular proliferation assay, Table 4) (converted)
Description: as §5, §6

Chain of GSK3β (h) (P49841 whole entry): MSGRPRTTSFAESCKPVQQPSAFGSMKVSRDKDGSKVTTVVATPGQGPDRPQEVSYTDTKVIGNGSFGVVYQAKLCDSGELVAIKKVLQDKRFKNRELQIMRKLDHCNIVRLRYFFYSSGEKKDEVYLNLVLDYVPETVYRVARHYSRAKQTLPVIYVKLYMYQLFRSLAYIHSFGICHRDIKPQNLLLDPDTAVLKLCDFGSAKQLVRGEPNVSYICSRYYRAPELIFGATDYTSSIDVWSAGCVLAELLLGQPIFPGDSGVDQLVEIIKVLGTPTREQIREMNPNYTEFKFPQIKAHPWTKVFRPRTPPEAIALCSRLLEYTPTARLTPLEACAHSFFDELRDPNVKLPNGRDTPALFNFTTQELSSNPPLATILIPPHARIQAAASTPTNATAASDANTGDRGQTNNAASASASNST
Chain of PLK2 (h) (Q9NYY3 whole entry): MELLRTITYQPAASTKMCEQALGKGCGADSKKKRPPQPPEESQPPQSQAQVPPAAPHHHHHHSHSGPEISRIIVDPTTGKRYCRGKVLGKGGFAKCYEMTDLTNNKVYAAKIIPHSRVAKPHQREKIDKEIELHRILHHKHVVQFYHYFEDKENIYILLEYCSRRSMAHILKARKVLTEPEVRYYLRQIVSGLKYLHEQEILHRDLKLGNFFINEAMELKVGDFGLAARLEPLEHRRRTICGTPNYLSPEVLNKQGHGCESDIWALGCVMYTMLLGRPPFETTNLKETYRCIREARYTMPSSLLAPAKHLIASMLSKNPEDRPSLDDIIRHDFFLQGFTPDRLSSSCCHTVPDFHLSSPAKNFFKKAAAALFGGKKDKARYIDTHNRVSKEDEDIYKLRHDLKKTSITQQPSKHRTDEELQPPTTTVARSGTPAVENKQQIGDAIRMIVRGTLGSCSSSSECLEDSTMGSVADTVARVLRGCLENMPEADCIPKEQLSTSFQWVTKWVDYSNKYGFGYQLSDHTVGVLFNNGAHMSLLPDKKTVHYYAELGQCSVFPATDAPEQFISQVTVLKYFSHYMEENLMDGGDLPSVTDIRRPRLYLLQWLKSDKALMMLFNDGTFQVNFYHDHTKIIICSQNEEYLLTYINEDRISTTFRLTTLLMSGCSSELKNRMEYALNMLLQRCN
Chain of PLK3 (h) (Q9H4B4 whole entry): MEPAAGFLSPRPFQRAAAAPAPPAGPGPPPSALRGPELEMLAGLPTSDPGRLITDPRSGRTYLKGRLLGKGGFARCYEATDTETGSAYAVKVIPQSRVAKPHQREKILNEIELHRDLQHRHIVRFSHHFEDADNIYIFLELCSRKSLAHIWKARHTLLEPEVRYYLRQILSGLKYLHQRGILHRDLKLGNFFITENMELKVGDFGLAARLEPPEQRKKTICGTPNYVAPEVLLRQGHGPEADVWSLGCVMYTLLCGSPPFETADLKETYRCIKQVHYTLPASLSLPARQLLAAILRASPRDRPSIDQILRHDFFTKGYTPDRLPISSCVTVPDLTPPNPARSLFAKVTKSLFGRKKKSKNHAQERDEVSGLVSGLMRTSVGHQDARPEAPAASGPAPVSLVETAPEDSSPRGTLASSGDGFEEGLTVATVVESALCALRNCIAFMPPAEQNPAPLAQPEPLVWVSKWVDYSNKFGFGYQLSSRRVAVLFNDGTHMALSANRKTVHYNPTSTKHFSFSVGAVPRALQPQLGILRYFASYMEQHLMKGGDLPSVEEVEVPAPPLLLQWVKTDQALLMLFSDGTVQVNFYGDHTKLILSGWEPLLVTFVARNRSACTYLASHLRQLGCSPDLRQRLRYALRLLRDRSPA
Chain of PLK1 T210D (h) (P53350 whole entry T210D): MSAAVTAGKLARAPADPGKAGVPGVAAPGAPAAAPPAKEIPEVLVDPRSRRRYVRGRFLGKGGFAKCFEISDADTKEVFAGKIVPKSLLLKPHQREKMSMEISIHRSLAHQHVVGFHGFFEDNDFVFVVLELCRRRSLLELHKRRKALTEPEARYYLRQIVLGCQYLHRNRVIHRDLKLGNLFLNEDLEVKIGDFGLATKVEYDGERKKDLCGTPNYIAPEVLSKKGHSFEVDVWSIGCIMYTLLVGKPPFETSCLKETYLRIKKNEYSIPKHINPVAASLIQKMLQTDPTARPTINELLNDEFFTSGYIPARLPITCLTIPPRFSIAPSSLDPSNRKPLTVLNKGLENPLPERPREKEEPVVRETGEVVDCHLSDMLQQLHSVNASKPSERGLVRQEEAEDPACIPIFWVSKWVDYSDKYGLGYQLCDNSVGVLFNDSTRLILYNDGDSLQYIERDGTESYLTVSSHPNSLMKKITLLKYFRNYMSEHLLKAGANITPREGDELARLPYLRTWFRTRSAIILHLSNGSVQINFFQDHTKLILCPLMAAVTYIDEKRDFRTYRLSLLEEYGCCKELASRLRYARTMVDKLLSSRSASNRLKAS
Chain of AuroraB (h) (Q96GD4 whole entry): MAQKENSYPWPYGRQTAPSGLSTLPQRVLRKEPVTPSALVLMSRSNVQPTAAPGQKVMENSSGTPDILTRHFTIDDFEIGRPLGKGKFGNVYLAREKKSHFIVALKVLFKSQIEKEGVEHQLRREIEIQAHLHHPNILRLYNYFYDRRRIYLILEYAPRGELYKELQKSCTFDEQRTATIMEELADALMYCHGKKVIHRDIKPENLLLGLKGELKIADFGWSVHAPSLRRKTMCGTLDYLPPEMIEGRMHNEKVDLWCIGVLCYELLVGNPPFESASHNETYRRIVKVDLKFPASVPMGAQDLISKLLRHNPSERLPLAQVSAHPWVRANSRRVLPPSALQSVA
Chain of PLK4 (h) (O00444 whole entry): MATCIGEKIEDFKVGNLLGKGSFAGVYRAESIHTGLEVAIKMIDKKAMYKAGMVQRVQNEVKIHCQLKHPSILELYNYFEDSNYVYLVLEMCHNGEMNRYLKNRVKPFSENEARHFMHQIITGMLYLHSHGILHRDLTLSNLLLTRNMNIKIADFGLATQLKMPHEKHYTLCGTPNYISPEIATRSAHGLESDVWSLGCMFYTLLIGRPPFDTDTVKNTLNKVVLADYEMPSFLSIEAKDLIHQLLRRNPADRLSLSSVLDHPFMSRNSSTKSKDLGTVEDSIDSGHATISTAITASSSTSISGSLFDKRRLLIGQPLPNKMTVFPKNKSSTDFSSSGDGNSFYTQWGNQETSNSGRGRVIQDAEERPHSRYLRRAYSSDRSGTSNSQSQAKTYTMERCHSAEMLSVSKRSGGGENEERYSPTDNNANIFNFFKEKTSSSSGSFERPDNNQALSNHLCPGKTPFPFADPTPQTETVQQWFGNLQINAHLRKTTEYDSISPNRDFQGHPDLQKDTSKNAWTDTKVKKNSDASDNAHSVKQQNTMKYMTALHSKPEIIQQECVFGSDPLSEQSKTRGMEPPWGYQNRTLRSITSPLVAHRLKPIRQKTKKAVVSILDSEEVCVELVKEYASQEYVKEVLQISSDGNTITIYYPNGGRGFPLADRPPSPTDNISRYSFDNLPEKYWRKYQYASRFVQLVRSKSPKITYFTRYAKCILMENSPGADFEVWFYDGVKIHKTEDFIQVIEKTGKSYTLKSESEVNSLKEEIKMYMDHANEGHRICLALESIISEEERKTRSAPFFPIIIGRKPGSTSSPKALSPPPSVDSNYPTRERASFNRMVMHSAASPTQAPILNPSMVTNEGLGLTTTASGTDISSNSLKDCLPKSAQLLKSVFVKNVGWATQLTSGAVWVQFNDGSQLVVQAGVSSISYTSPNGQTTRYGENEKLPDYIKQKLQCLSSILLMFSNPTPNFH
Chain of CDK1/CyclinB (h) (P06493 whole entry): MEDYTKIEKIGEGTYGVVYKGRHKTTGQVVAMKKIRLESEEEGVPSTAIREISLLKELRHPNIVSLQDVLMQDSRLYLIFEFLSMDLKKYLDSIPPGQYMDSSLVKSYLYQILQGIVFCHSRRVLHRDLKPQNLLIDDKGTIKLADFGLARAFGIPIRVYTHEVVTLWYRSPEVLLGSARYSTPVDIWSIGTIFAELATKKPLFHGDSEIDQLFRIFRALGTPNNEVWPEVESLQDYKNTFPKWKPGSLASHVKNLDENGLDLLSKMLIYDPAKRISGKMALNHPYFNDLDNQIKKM
Chain of CDK1/CyclinB (h) (P14635 whole entry partner): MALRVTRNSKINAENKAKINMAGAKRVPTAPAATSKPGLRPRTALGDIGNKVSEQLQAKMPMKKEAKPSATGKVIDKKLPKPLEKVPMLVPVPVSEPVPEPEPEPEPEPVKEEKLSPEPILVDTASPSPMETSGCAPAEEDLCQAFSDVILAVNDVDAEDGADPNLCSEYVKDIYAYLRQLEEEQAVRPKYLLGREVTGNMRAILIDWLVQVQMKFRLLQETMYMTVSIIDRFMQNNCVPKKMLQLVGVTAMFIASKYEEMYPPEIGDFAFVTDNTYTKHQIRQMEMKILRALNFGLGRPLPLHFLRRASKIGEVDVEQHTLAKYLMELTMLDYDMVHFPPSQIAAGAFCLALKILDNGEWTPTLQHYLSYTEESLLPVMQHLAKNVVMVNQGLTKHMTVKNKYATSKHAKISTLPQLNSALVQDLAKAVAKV
Chain of CDK4/CyclinD1 (h) (P11802 whole entry): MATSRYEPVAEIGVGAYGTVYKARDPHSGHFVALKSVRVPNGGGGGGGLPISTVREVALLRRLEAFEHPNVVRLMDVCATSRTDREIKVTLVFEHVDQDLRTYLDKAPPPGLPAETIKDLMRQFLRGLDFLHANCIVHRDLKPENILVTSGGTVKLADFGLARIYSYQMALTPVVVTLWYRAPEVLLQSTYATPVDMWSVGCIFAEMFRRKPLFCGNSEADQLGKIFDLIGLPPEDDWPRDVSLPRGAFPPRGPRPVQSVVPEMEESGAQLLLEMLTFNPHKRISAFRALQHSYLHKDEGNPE
Chain of CDK4/CyclinD1 (h) (P24385 whole entry partner): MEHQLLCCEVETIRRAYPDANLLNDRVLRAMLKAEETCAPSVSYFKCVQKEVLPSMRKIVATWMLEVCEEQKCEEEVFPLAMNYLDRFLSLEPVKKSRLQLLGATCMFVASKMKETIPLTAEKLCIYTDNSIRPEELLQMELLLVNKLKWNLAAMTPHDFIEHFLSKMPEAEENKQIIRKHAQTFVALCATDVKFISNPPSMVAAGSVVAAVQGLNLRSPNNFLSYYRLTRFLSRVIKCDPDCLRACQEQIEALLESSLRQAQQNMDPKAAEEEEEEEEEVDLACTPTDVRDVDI

SMILES | IC50 (PLK1 T210D (h)) | IC50 (AuroraB (h)) | IC50 (PLK3 (h)) | IC50 (HCT-116) | IC50 (PLK4 (h)) | IC50 (CDK1/CyclinB (h)) | IC50 (CDK4/CyclinD1 (h)) | IC50 (GSK3β (h)) | IC50 (U87-MG) | IC50 (PLK2 (h)) | IC50 (A2780)
COc1ccc2cc1CN(C)CCNC(=O)CN1CCN(CC1)Cc1cc(Br)cc(c1)Nc1nccc-2n1 [Compound 50] | > 10 µM | > 10 µM | > 10 µM | > 10 µM | 9.33 µM | > 10 µM | > 10 µM | 5.13 µM | > 10 µM | > 10 µM | > 10 µM
COc1ccc2cc1CNCCNC(=O)C1CCN(CC1)Cc1cc(ccc1N1CCOCC1)Nc1nccc-2n1 [Compound 64] | > 10 µM | 7.41 µM | > 10 µM | – | 1.2 µM | > 10 µM | > 10 µM | > 10 µM | – | > 10 µM | –
COc1ccc2cc1CN(C)CCNC(=O)C1CCN(CC1)Cc1cc(Br)cc(c1)Nc1nccc-2n1 [Compound 79] | > 10 µM | > 10 µM | > 10 µM | > 10 µM | 5.25 µM | > 10 µM | > 10 µM | 0.832 µM | 7.59 µM | > 10 µM | 4.79 µM
CN1CCCNC(=O)[C@@H]2CCCN2Cc2cc(Br)cc(c2)Nc2nccc(n2)-c2ccc(cc2)C1 [Compound 159] | > 10 µM | 5.75 µM | > 10 µM | > 10 µM | 1.48 µM | > 10 µM | > 10 µM | 6.31 µM | 6.92 µM | > 10 µM | 2.69 µM
O=C1NCc2cccc(c2)-c2ccnc(n2)Nc2ccc(cc2)CN[C@H]1CO [Compound 191] | > 10 µM | > 10 µM | > 10 µM | – | > 10 µM | > 10 µM | 7.41 µM | 7.94 µM | – | > 10 µM | –

Second part, the molecule after the results:

IC50 (PLK1 T210D (h)) | IC50 (AuroraB (h)) | IC50 (PLK3 (h)) | IC50 (HCT-116) | IC50 (PLK4 (h)) | IC50 (CDK1/CyclinB (h)) | IC50 (CDK4/CyclinD1 (h)) | IC50 (GSK3β (h)) | IC50 (U87-MG) | IC50 (PLK2 (h)) | IC50 (A2780) | SMILES
> 10 µM | > 10 µM | > 10 µM | > 10 µM | > 10 µM | > 10 µM | > 10 µM | > 10 µM | > 10 µM | > 10 µM | – | COc1ccc2cc1CN1CCC[C@H]1C(=O)NCCCc1ccc(cn1)-c1ccnc(n1)N2 [Compound 2]
> 10 µM | > 10 µM | > 10 µM | > 10 µM | 1.12 µM | > 10 µM | > 10 µM | 1.91 µM | 5.89 µM | > 10 µM | 2.69 µM | CN1CCCNC(=O)C2CCN(CC2)Cc2cc(Br)cc(c2)Nc2nccc(n2)-c2ccc(cc2)C1 [Compound 63]
> 10 µM | > 10 µM | > 10 µM | > 10 µM | 2.09 µM | > 10 µM | > 10 µM | 2.95 µM | 7.94 µM | > 10 µM | 3.89 µM | CN1CCCNC(=O)CN2CCN(CC2)Cc2cc(Br)cc(c2)Nc2nccc(n2)-c2ccc(cc2)C1 [Compound 137]
> 10 µM | > 10 µM | > 10 µM | > 10 µM | 3.55 µM | > 10 µM | > 10 µM | > 3.02 µM | > 10 µM | > 10 µM | > 10 µM | CN1CCCNC(=O)CN2CCN(CC2)Cc2cccc(c2)Nc2nccc(n2)-c2ccc(cc2)C1 [Compound 143]
> 10 µM | 5.25 µM | > 10 µM | > 10 µM | 3.89 µM | > 10 µM | > 10 µM | > 10 µM | 5.25 µM | > 10 µM | 4.17 µM | COc1ccc2cc1CN(C)CCCNC(=O)[C@@H]1CCCN1Cc1cc(Br)cc(c1)Nc1nccc-2n1 [Compound 170]
> 10 µM | 8.71 µM | > 10 µM | > 10 µM | ~6.92 µM | > 10 µM | > 10 µM | 4.79 µM | > 10 µM | > 10 µM | 1.66 µM | COc1ccc2cc1CN(C)CCNC(=O)[C@@H]1CCCN1Cc1cc(Br)cc(c1)Nc1nccc-2n1 [Compound 174]
